Values quoted from earlier work in patent US20080200527A1, “Cannabinoid Receptor Modulators” (Carex SA, priority 2005, published 2008).

Tested on: absorption of dietary fat
Conditions: in vivo

**Q.** Which “block of the absorption of dietary fat” value does the source give for `CCCCCCCCCCC[C@@H](C[C@@H]1OC(=O)[C@H]1CCCCCC)OC(=O)[C@H](CC(C)C)NC=O` [orlistat] here?
**A.** The value was “up to 30%”.
